IC50 and inhibition data for six molecules are collected here from US8598160B2, “Cycloalkyl lactame derivatives as inhibitors of 11-beta-hydroxysteroid dehydrogenase 1” (Vitae Pharmaceuticals, Inc., priority 2008, dated 2013).

The assay has as its target human 11β-HSD1 (Homo sapiens, UniProt P28845). The experiment in a line: biochemical. Particulars: for inhibition at 0.1 µM: read-out: Average % inhibition at 100 nM; for inhibition at 0.1111 µM: read-out: Average % inhibition at 111.1 nM.

Chain of human 11β-HSD1 (P28845 whole entry): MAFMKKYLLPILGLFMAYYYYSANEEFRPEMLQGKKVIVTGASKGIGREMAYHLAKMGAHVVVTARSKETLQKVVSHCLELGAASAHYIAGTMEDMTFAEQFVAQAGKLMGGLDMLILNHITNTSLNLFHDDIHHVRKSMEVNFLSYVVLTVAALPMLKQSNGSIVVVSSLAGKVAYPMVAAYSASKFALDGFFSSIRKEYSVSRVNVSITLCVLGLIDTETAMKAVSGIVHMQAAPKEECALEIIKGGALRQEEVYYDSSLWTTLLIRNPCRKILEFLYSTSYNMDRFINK
Procedure: All reactions were carried out at rt in 96 well clear flexible PET Microbeta plates (PerkinElmer). […] The reaction was stopped by adding 50 μl of the SPA beads suspension containing 10 μM 18β-glycyrrhetinic acid, 5 mg/ml protein A coated YSi SPA beads (GE Healthcare) and 3.3 μg/ml of anti-cortisol antibody (East Coast Biologics) in Superblock buffer (Bio-Rad). The plates were shaken for 120 minutes at rt, and the SPA signal corresponding to [^3H]cortisol was measured on a Microbeta plate reader.

A word on the IC50: it is the point on the concentration scale where inhibition reaches its midpoint. Lower therefore signals inhibition by little substance. By inhibition is commonly meant the relative decrease from the control value, in per cent. As for `C[C@@H](c1ccc(-c2ccc(F)cc2F)cc1)N1CCC(c2ccccc2)CC1=O` (mixture of isomers) [Example 5, 1-((1S)-1-(2′,4′-difluorobiphenyl-4-yl)ethyl)-4-phenylpiperidin-2-one], the IC50 is below 100 nM and the inhibition at 0.1 µM was 94.5%.
In the same order, the values of `C[C@@H](c1ccc(Br)cc1)N1CCC(c2ccc(F)cc2)OC1=O` (mixture of isomers) [Example 7, 3-((1S)-1-(4-bromophenyl)ethyl)-6-(4-fluorophenyl)-1,3-oxazinan-2-one] are below 100 nM and 90.1%.
With `O=C1O[C@@H](c2ccccc2)CCN1c1cccc2ccccc12` [Example 3, (R)-3-(naphthalen-1-yl)-6-phenyl-1,3-oxazinan-2-one], the IC50 lay within 100 to 1000 nM and the inhibition at 0.1111 µM is -5.9%.
In the same order, the values of `O=C1OC(c2ccccc2Cl)CCN1c1cccc(Br)c1` (stereo not drawn) [Example 4, 3-(3-bromophenyl)-6-(2-chlorophenyl)-1,3-oxazinan-2-one] are 100 to 1000 nM and 22.5%.
Turning to `COc1ccc([C@H](C)N2CCC(c3ccc(F)cc3)CC2=O)cc1` (stereo partly drawn) [Example 6, 4(-4-fluorophenyl)-1-((1S)-1-(4-methoxylphenyl)ethyl)piperidin-2-one], the IC50 was below 100 nM and the inhibition at 0.1 µM turned out to be 89.4%.
Taken in the same sequence, the figures for `C[C@@H](c1ccc(Br)cc1)N1CCCC(c2ccccc2)NC1=O` (stereo partly drawn) [Example 8, 1-((S)-1-(4-bromophenyl)ethyl)-4-phenyl-1,3-diazepan-2-one] were below 100 nM and 100%.
